Each block holds one compound with its values, some of them ahead of it.
Legend:
MRC5 = test: MTS proliferation assay; assay type: cell-based; settings: MRC5, 72 h
Method in brief: (§1)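 Four-point treatment (0.3–10 μM final) ran 72 h in complete medium, with the compound-containing addition holding no more than 5% DMSO. Metabolic activity was then developed with MTS reagent over 3 h and quantified by absorbance (492 nm).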

HeLa = test: MTS proliferation assay; assay type: cell-based, human; settings: 72 h
Method in brief: as §1

Jurkat = test: MTS proliferation assay; assay type: cell-based, human; settings: 72 h
Method in brief: as §1

[1] = Hoechst 33342 nuclear staining; assay type: cell-based; settings: for Hoechst 33342 nuclear staining score, H460: H460 cells; for Hoechst 33342 nuclear staining score, HeLa: HeLa cells; for Hoechst 33342 nuclear staining score, Jily: Jily cells; for Hoechst 33342 nuclear staining score, Jurkat: Jurkat cells; for Hoechst 33342 nuclear staining score, MRC5: MRC5 cells; on Hoechst 33342 nuclear staining score, PBLs: key: 0: no activity; 1: weak activity comprising less than 50% of the cells; 2: strong activity comprising more than 50% of the cells;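 on all read-outs here: apoptotic nuclei scored 0 none 1 weak under 50% of cells 2 strong over 50% of cells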
Method in brief: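 Cells were plated in 96 well tissue culture plates in 80 μl complete medium, with 3-5*10^3 cells per well for adherent lines and 8-10*10^3 for suspension lines. Adherent cells spread for 24 h before treatment, while suspension cells were treated right after seeding. Compounds were added in 20 μl complete medium containing max 5% DMSO.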

[2] = conc 0.1 (final concentrations in μM), 24 h or 48 h incubation
[3] = conc 0.3 (final concentrations in μM), 24 h or 48 h incubation
[4] = conc 1 (final concentrations in μM), 24 h or 48 h incubation
[5] = conc 3 (final concentrations in μM), 24 h or 48 h incubation

- IC50 (HeLa): > 1 µM
- IC50 (Jurkat): > 1 µM
SMILES: COc1cc(-c2cc(-c3cncc(C(=O)NCCC4CCCN4C)c3)cn2S(=O)(=O)c2ccc(C)cc2)cc(OC)c1OC.Cl (stereo not drawn) [Example 62]
- IC50 (MRC5): > 1 µM
- Hoechst 33342 nuclear staining score, H460 ([1]; conc 0.1): 0
- Hoechst 33342 nuclear staining score, H460 ([1]; conc 0.3): 0
- Hoechst 33342 nuclear staining score, H460 ([1]; conc 1): 0
- Hoechst 33342 nuclear staining score, H460 ([1]; conc 3): 0
- Hoechst 33342 nuclear staining score, HeLa ([1]; conc 0.1): 0
- Hoechst 33342 nuclear staining score, HeLa ([1]; conc 0.3): 0
- Hoechst 33342 nuclear staining score, HeLa ([1]; conc 1): 0
- Hoechst 33342 nuclear staining score, HeLa ([1]; conc 3): 0
- Hoechst 33342 nuclear staining score, Jily ([1]; conc 0.1): 0
- Hoechst 33342 nuclear staining score, Jily ([1]; conc 0.3): 0
- Hoechst 33342 nuclear staining score, Jily ([1]; conc 1): 0
- Hoechst 33342 nuclear staining score, Jily ([1]; conc 3): 0
- Hoechst 33342 nuclear staining score, Jurkat ([1]; conc 0.1): 0
- Hoechst 33342 nuclear staining score, Jurkat ([1]; conc 0.3): 0
- Hoechst 33342 nuclear staining score, Jurkat ([1]; conc 1): 0
- Hoechst 33342 nuclear staining score, Jurkat ([1]; conc 3): 2 (strong activity comprising more than 50% of the cells)
- Hoechst 33342 nuclear staining score, MRC5 ([1]; conc 0.1): 0
- Hoechst 33342 nuclear staining score, MRC5 ([1]; conc 0.3): 0
- Hoechst 33342 nuclear staining score, MRC5 ([1]; conc 1): 0
- Hoechst 33342 nuclear staining score, MRC5 ([1]; conc 3): 0
- Hoechst 33342 nuclear staining score, PBLs ([1]; conc 0.1): 0
- Hoechst 33342 nuclear staining score, PBLs ([1]; conc 0.3): 0
- Hoechst 33342 nuclear staining score, PBLs ([1]; conc 1): 0
- Hoechst 33342 nuclear staining score, PBLs ([1]; conc 3): 0

- IC50 (HeLa): > 1 µM
- IC50 (Jurkat): > 1 µM
SMILES: COc1cc(-c2cc(-c3cncc(C(=O)O)c3)cn2S(=O)(=O)c2ccc(C)cc2)cc(OC)c1OC.N [Example 66]
- IC50 (MRC5): > 1 µM
- Hoechst 33342 nuclear staining score, H460 ([1]; conc 0.1): 0
- Hoechst 33342 nuclear staining score, H460 ([1]; conc 0.3): 0
- Hoechst 33342 nuclear staining score, H460 ([1]; conc 1): 0
- Hoechst 33342 nuclear staining score, H460 ([1]; conc 3): 0
- Hoechst 33342 nuclear staining score, HeLa ([1]; conc 0.1): 0
- Hoechst 33342 nuclear staining score, HeLa ([1]; conc 0.3): 0
- Hoechst 33342 nuclear staining score, HeLa ([1]; conc 1): 0
- Hoechst 33342 nuclear staining score, HeLa ([1]; conc 3): 0
- Hoechst 33342 nuclear staining score, Jily ([1]; conc 0.1): 0
- Hoechst 33342 nuclear staining score, Jily ([1]; conc 0.3): 0
- Hoechst 33342 nuclear staining score, Jily ([1]; conc 1): 0
- Hoechst 33342 nuclear staining score, Jily ([1]; conc 3): 0
- Hoechst 33342 nuclear staining score, Jurkat ([1]; conc 0.1): 0
- Hoechst 33342 nuclear staining score, Jurkat ([1]; conc 0.3): 0
- Hoechst 33342 nuclear staining score, Jurkat ([1]; conc 1): 0
- Hoechst 33342 nuclear staining score, Jurkat ([1]; conc 3): 0
- Hoechst 33342 nuclear staining score, MRC5 ([1]; conc 0.1): 0
- Hoechst 33342 nuclear staining score, MRC5 ([1]; conc 0.3): 0
- Hoechst 33342 nuclear staining score, MRC5 ([1]; conc 1): 0
- Hoechst 33342 nuclear staining score, MRC5 ([1]; conc 3): 0
- Hoechst 33342 nuclear staining score, PBLs ([1]; conc 0.1): 0
- Hoechst 33342 nuclear staining score, PBLs ([1]; conc 0.3): 0
- Hoechst 33342 nuclear staining score, PBLs ([1]; conc 1): 0
- Hoechst 33342 nuclear staining score, PBLs ([1]; conc 3): 0

- IC50 (HeLa): > 1 µM
- IC50 (Jurkat): < 1 µM
SMILES: COc1cc(-c2cc(CNc3ccc4[nH]nnc4c3)cn2S(=O)(=O)c2ccc(C)cc2)cc(OC)c1OC [Example 69]
- IC50 (MRC5): > 1 µM
- Hoechst 33342 nuclear staining score, H460 ([1]; conc 0.1): 0
- Hoechst 33342 nuclear staining score, H460 ([1]; conc 0.3): 0
- Hoechst 33342 nuclear staining score, H460 ([1]; conc 1): 0
- Hoechst 33342 nuclear staining score, H460 ([1]; conc 3): 2 (strong activity comprising more than 50% of the cells)
- Hoechst 33342 nuclear staining score, HeLa ([1]; conc 0.1): 0
- Hoechst 33342 nuclear staining score, HeLa ([1]; conc 0.3): 0
- Hoechst 33342 nuclear staining score, HeLa ([1]; conc 1): 0
- Hoechst 33342 nuclear staining score, HeLa ([1]; conc 3): 2 (strong activity comprising more than 50% of the cells)
- Hoechst 33342 nuclear staining score, Jily ([1]; conc 0.1): 0
- Hoechst 33342 nuclear staining score, Jily ([1]; conc 0.3): 0
- Hoechst 33342 nuclear staining score, Jily ([1]; conc 1): 1 (weak activity comprising less than 50% of the cells)
- Hoechst 33342 nuclear staining score, Jily ([1]; conc 3): 2 (strong activity comprising more than 50% of the cells)
- Hoechst 33342 nuclear staining score, Jurkat ([1]; conc 0.1): 0
- Hoechst 33342 nuclear staining score, Jurkat ([1]; conc 0.3): 0
- Hoechst 33342 nuclear staining score, Jurkat ([1]; conc 1): 2 (strong activity comprising more than 50% of the cells)
- Hoechst 33342 nuclear staining score, Jurkat ([1]; conc 3): 2 (strong activity comprising more than 50% of the cells)
- Hoechst 33342 nuclear staining score, MRC5 ([1]; conc 0.1): 0
- Hoechst 33342 nuclear staining score, MRC5 ([1]; conc 0.3): 0
- Hoechst 33342 nuclear staining score, MRC5 ([1]; conc 1): 0
- Hoechst 33342 nuclear staining score, MRC5 ([1]; conc 3): 2 (strong activity comprising more than 50% of the cells)
- Hoechst 33342 nuclear staining score, PBLs ([1]; conc 0.1): 0
- Hoechst 33342 nuclear staining score, PBLs ([1]; conc 0.3): 0
- Hoechst 33342 nuclear staining score, PBLs ([1]; conc 1): 0
- Hoechst 33342 nuclear staining score, PBLs ([1]; conc 3): 0

More lines, now with the values behind:

SMILES: Cc1ccc(S(=O)(=O)n2cc(-c3ccc(C#N)cc3)cc2-c2cccs2)cc1 [Example 54]
- IC50 (MRC5): > 1 µM
- IC50 (HeLa): > 1 µM
- IC50 (Jurkat): < 1 µM
- Hoechst 33342 nuclear staining score, H460 [1, 2]: 0
- Hoechst 33342 nuclear staining score, H460 [1, 3]: 0
- Hoechst 33342 nuclear staining score, H460 [1, 4]: 0
- Hoechst 33342 nuclear staining score, H460 [1, 5]: 0
- Hoechst 33342 nuclear staining score, HeLa [1, 2]: 0
- Hoechst 33342 nuclear staining score, HeLa [1, 3]: 0
- Hoechst 33342 nuclear staining score, HeLa [1, 4]: 0
- Hoechst 33342 nuclear staining score, HeLa [1, 5]: 0
- Hoechst 33342 nuclear staining score, Jily [1, 2]: 0
- Hoechst 33342 nuclear staining score, Jily [1, 3]: 0
- Hoechst 33342 nuclear staining score, Jily [1, 4]: 0
- Hoechst 33342 nuclear staining score, Jily [1, 5]: 0
- Hoechst 33342 nuclear staining score, Jurkat [1, 2]: 0
- Hoechst 33342 nuclear staining score, Jurkat [1, 3]: 0
- Hoechst 33342 nuclear staining score, Jurkat [1, 4]: 0
- Hoechst 33342 nuclear staining score, Jurkat [1, 5]: 0
- Hoechst 33342 nuclear staining score, MRC5 [1, 2]: 0
- Hoechst 33342 nuclear staining score, MRC5 [1, 3]: 0
- Hoechst 33342 nuclear staining score, MRC5 [1, 4]: 0
- Hoechst 33342 nuclear staining score, MRC5 [1, 5]: 0
- Hoechst 33342 nuclear staining score, PBLs [1, 2]: 0
- Hoechst 33342 nuclear staining score, PBLs [1, 3]: 0
- Hoechst 33342 nuclear staining score, PBLs [1, 4]: 0
- Hoechst 33342 nuclear staining score, PBLs [1, 5]: 0

SMILES: COc1cc(-c2cc(CNc3ccc(-n4cncn4)cc3)cn2S(=O)(=O)c2ccc(C)cc2)cc(OC)c1OC [Example 68]
- IC50 (MRC5): > 1 µM
- IC50 (HeLa): < 1 µM
- IC50 (Jurkat): < 1 µM
- Hoechst 33342 nuclear staining score, H460 ([1]; conc 0.1): 0
- Hoechst 33342 nuclear staining score, H460 ([1]; conc 0.3): 0
- Hoechst 33342 nuclear staining score, H460 ([1]; conc 1): 2 (strong activity comprising more than 50% of the cells)
- Hoechst 33342 nuclear staining score, H460 ([1]; conc 3): 2 (strong activity comprising more than 50% of the cells)
- Hoechst 33342 nuclear staining score, HeLa ([1]; conc 0.1): 0
- Hoechst 33342 nuclear staining score, HeLa ([1]; conc 0.3): 0
- Hoechst 33342 nuclear staining score, HeLa ([1]; conc 1): 0
- Hoechst 33342 nuclear staining score, HeLa ([1]; conc 3): 2 (strong activity comprising more than 50% of the cells)
- Hoechst 33342 nuclear staining score, Jily ([1]; conc 0.1): 0
- Hoechst 33342 nuclear staining score, Jily ([1]; conc 0.3): 0
- Hoechst 33342 nuclear staining score, Jily ([1]; conc 1): 2 (strong activity comprising more than 50% of the cells)
- Hoechst 33342 nuclear staining score, Jily ([1]; conc 3): 2 (strong activity comprising more than 50% of the cells)
- Hoechst 33342 nuclear staining score, Jurkat ([1]; conc 0.1): 0
- Hoechst 33342 nuclear staining score, Jurkat ([1]; conc 0.3): 0
- Hoechst 33342 nuclear staining score, Jurkat ([1]; conc 1): 2 (strong activity comprising more than 50% of the cells)
- Hoechst 33342 nuclear staining score, Jurkat ([1]; conc 3): 2 (strong activity comprising more than 50% of the cells)
- Hoechst 33342 nuclear staining score, MRC5 ([1]; conc 0.1): 0
- Hoechst 33342 nuclear staining score, MRC5 ([1]; conc 0.3): 0
- Hoechst 33342 nuclear staining score, MRC5 ([1]; conc 1): 0
- Hoechst 33342 nuclear staining score, MRC5 ([1]; conc 3): 2 (strong activity comprising more than 50% of the cells)
- Hoechst 33342 nuclear staining score, PBLs ([1]; conc 0.1): 0
- Hoechst 33342 nuclear staining score, PBLs ([1]; conc 0.3): 0
- Hoechst 33342 nuclear staining score, PBLs ([1]; conc 1): 0
- Hoechst 33342 nuclear staining score, PBLs ([1]; conc 3): 0

Source: US7612064B2, “Sulfopyrroles” (Takeda Pharmaceutical Company Limited, priority 2003, dated 2009)
